The test deals with T1, human mAChR M1 (Homo sapiens, UniProt P11229).
T1 construct: hM1 and hM4 cDNAs were purchased from Missouri S&T cDNA Resource; host or cells: CHO-K1 cells, stably transfected with Lipofectamine2000
T1 sequence (P11229 1-460): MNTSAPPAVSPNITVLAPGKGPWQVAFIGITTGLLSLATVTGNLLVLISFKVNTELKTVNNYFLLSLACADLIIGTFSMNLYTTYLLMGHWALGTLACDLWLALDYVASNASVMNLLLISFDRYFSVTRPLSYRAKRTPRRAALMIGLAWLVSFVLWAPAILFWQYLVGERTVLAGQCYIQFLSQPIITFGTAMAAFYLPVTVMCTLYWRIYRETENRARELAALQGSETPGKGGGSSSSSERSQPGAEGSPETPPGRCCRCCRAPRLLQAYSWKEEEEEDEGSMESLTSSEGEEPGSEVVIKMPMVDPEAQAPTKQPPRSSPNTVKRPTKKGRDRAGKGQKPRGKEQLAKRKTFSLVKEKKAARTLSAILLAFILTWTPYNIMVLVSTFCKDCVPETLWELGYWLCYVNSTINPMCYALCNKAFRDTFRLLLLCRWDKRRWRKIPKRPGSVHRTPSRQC
Put plainly: mAChR M1 cell-based functional assay (calcium mobilization, PAM mode, EC20 acetylcholine). The note with it: CHO-K1 cells expressing hM1, calcium flux (Fluo-4); for Emax: EC20 acetylcholine response; for EC50: concentration-dependent increase in the EC20 acetylcholine response. The source says: Chinese hamster ovary (CHO-K1) cells stably expressing rat (r)M1 were purchased from the American Type Culture Collection and cultured according to their indicated protocol. CHO cells stably expressing human (h)M2, hM3, and hM5 were described previously (Levey, et al., 1991); hM1 and hM4 cDNAs were purchased from Missouri S&T cDNA Resource; rM4 cDNA was provided by T. I. Bonner (National Institutes of Health, Bethesda, Md.). rM2 and rM3 were cloned from a rat brain cDNA library and sequence verified. hM1, rM2, rM3, hM4, and rM4 cDNAs were used to stably transfect CHO-K1 cells purchased from the American Type Culture Collection using Lipofectamine2000. To make stable rM2, hM2, rM3, hM4, and rM4 cell lines for use in calcium mobilization assays, these cells also were stably transfected with a chimeric G-protein (Gqi5) (provided by B. R. Conklin, University of California, San Francisco) using Lipofectamine 2000. rM1, hM1, rM3, hM3, rM5, and hM5 cells were grown in Ham's F-12 medium containing 10% heat-inactivated fetal bovine serum (FBS), 20 mM HEPES, and 50 µg/mL G418 sulfate. rM2-Gqi5, hM2-Gqi5, and hM4-Gqi5 cells were grown in the same medium also containing 500 μg/mL Hygromycin B. Stable rM4-Gqi5 cells were grown in DMEM containing 10% heat-inactivated FBS, 20 mM HEPES, 400 μg/mL G418 sulfate, and 500 μg/mL Hygromycin B.
For high throughput measurement of agonist-evoked increases in intracellular calcium, CHO-K1 cells stably expressing muscarinic receptors were plated in growth medium lacking G418 and hygromycin at 15,000 cells/20 μL/well in Greiner 384-well black-walled, tissue culture (TC)-treated, clear-bottom plates (VWR). Cells were incubated overnight at 37° C. and 5% CO2. The next day, cells were washed using an ELX 405 (BioTek) with four washes (80 μL) of assay buffer then aspirated to 20 μL. Next, 20 μL of 16 μM Fluo-4/acetoxymethyl ester (Invitrogen, Carlsbad, Calif.) prepared as a 2.3 mM stock in DMSO and mixed in a 1:1 ratio with 10% (w/v) Pluronic F-127 and diluted in assay buffer was added to the wells and the cell plates were incubated for 50 min at 37° C. and 5% CO2. Dye was removed by washing with the ELX 405 (four 80 μL washes of assay buffer) then aspirated to 20 μL. Compound master plates were formatted in an 11 point CRC format (1:3 dilutions) in 100% DMSO with a starting concentration of 10 mM using the BRAVO liquid handler (Agilent). Test compound CRCs were then transferred to daughter plates (240 nL) using the Echo acoustic plate reformatter (Labcyte, Sunnyvale, Calif.) and then diluted into assay buffer (40 μL) to a 2× stock using a Thermo Fisher Combi (Thermo Fisher Scientific, Waltham, Mass.).
Calcium flux was measured using the Functional Drug Screening System (FDSS) 6000 (Hamamatsu Corporation, Tokyo, Japan) as an increase in the fluorescent static ratio. Compounds were applied to cells (20 μL, 2×) using the automated system of the FDSS 6000 at 4 s into the 300 s protocol and the data were collected at 1 Hz. […] Agonist activity was analyzed as a concentration-dependent increase in calcium mobilization upon compound addition. Emax values for agonist activity are expressed relative to the maximum for acetylcholine. Positive allosteric modulator activity was analyzed as a concentration-dependent increase in the EC20 acetylcholine response. Antagonist activity was analyzed as a concentration-dependent decrease in the […] acetylcholine response. Concentration-response curves were generated using a four-parameter logistical equation in XLfit curve fitting software (IDBS, Bridgewater, N.J.) for Excel (Microsoft, Redmond, Wash.) or Prism (GraphPad Software, Inc., San Diego, Calif.).
Activity (EC50 and Emax) was determined in the mAChR M1 cell-based functional assay as described above and the data are shown in Table 2. The compound numbers correspond to the compound numbers used in Table 1.
In general terms: Calcium assays in cells follow changes in intracellular calcium, usually with a dye or a luminescent sensor.

As usually defined, the Emax is the size of the effect at its maximum, as opposed to the concentration needed. For orientation: EC50 means the concentration needed to bring the measured effect to its halfway point. For the compound `O=C(N[C@H]1CCOC[C@@H]1O)c1cc(Cc2ccc(-n3cccn3)cc2)cc2cccnc12` [compound 1, N-[(3R,4S)-3-hydroxytetrahydropyran-4-yl]-6-[(4-pyrazol-1-ylphenyl)methyl]quinoline-8-carboxamide], the maximum response (Emax) was found to be 80% and the concentration for a half-maximal effect (EC50) amounted to 0.46 µM.
For the compound `O=C(N[C@H]1CCCC[C@@H]1O)c1cc(Cc2ccc(-n3cccn3)cc2)cc2cccnc12` [compound 2, N-[(1S,2S)-2-hydroxycyclohexyl]-6-[(4-pyrazol-1-ylphenyl)methyl]quinoline-8-carboxamide], the maximal effect (Emax) was found to be 81% and the EC50 stood at 1 µM.
As for `O=C(NC1CCOCC1)c1cc(Cc2ccc(-n3cccn3)cc2)cc2cccnc12` [compound 3, 6-[(4-pyrazol-1-ylphenyl)methyl]-N-tetrahydropyran-4-yl-quinoline-8-carboxamide], the Emax was 45% and the concentration giving a half-maximal response (EC50) turned out to be 2.98 µM.
Turning to `O=C(NC1CC2(COC2)C1)c1cc(Cc2ccc(-n3cccn3)cc2)cc2cccnc12` [compound 4, N-(2-oxaspiro[3.3]heptan-6-yl)-6-[(4-pyrazol-1-ylphenyl)methyl]quinoline-8-carboxamide], the Emax was found to be 67% and the concentration for a half-maximal effect (EC50) was 6.03 µM.
The like results for `O=C(N[C@H]1CCC[C@@H]1O)c1cc(Cc2ccc(-n3cccn3)cc2)cc2cccnc12` [compound 5, N-[(1S,2S)-2-hydroxycyclopentyl]-6-[(4-pyrazol-1-ylphenyl)methyl]quinoline-8-carboxamide] were, in that order, 76% and 1.66 µM.
In the same order, the values of `O=C(N[C@H]1CC[C@@H]1O)c1cc(Cc2ccc(-n3cccn3)cc2)cc2cccnc12` [compound 6, N-[(1S,2S)-2-hydroxycyclobutyl]-6-[(4-pyrazol-1-ylphenyl)methyl]quinoline-8-carboxamide] are 57% and 5.49 µM.
As to `O=C(N[C@H]1CCCCC[C@@H]1O)c1cc(Cc2ccc(-n3cccn3)cc2)cc2cccnc12` [compound 7, N-[(1S,2S)-2-hydroxycycloheptyl]-6-[(4-pyrazol-1-ylphenyl)methyl]quinoline-8-carboxamide], the maximal response (Emax) was 87% and the EC50 was found to be 2.03 µM.
In the same order, the values of `O=C(NCC1CCOCC1)c1cc(Cc2ccc(-n3cccn3)cc2)cc2cccnc12` [compound 8, 6-[(4-pyrazol-1-ylphenyl)methyl]-N-(tetrahydropyran-4-ylmethyl)quinoline-8-carboxamide] are 49% and 8.16 µM.
With `Cn1ccc(-c2ccc(Cc3cc(C(=O)N[C@H]4CCOC[C@@H]4O)c4ncccc4c3)cn2)n1` [compound 9, N-[(3R,4S)-3-hydroxytetrahydropyran-4-yl]-6-[[6-(1-methylpyrazol-3-yl)-3-pyridyl]methyl]quinoline-8-carboxamide], the maximal response (Emax) worked out at 79% and the half-maximal effective concentration (EC50) worked out at 0.308 µM.
Regarding `Cn1ccc(-c2ccc(Cc3cc(C(=O)N[C@H]4CCCCC[C@@H]4O)c4ncccc4c3)cn2)n1` [compound 10, N-[(1S,2S)-2-hydroxycycloheptyl]-6-[[6-(1-methylpyrazol-3-yl)-3-pyridyl]methyl]quinoline-8-carboxamide], the Emax is 84% and the EC50 was found to be 0.922 µM.
In the same order, the values of `Cn1ccc(-c2ccc(Cc3cc(C(=O)N[C@H]4CCCC[C@@H]4O)c4ncccc4c3)cn2)n1` [compound 11, N-[(1S,2S)-2-hydroxycyclohexyl]-6-[[6-(1-methylpyrazol-3-yl)-3-pyridyl]methyl]quinoline-8-carboxamide] are 82% and 0.384 µM.
In the same order, the values of `Cn1ccc(-c2ccc(Cc3cc(C(=O)N[C@H]4CCC[C@@H]4O)c4ncccc4c3)cn2)n1` [compound 12, N-[(1S,2S)-2-hydroxycyclopentyl]-6-[[6-(1-methylpyrazol-3-yl)-3-pyridyl]methyl]quinoline-8-carboxamide] are 82% and 1.39 µM.
For the compound `Cn1ccc(-c2ccc(Cc3cc(C(=O)N[C@H]4CC[C@@H]4O)c4ncccc4c3)cn2)n1` [compound 13, N-[(1S,2S)-2-hydroxycyclobutyl]-6-[[6-(1-methylpyrazol-3-yl)-3-pyridyl]methyl]quinoline-8-carboxamide], the Emax was 75%.
Consider `Cn1ccc(-c2ccc(Cc3cc(C(=O)NC4CC5(COC5)C4)c4ncccc4c3)cn2)n1` [compound 14, 6-[[6-(1-methylpyrazol-3-yl)-3-pyridyl]methyl]-N-(2-oxaspiro[3.3]heptan-6-yl)quinoline-8-carboxamide], for which the Emax worked out at 73% and the 50% effective concentration (EC50) was 5.29 µM.
Turning to `Cn1ccc(-c2ccc(Cc3cc(C(=O)NC4CCOCC4)c4ncccc4c3)cn2)n1` [compound 15, 6-[[6-(1-methylpyrazol-3-yl)-3-pyridyl]methyl]-N-tetrahydropyran-4-yl-quinoline-8-carboxamide], the Emax was 66%.
Take `Cc1nc(-c2ccc(Cc3cc(C(=O)N[C@H]4CCOC[C@@H]4O)c4ncccc4c3)cc2)co1` [compound 16, N-[(3R,4S)-3-hydroxytetrahydropyran-4-yl]-6-[[4-(2-methyloxazol-4-yl)phenyl]methyl]quinoline-8-carboxamide]: the Emax came to 86% and the EC50 is 0.438 µM.
The like results for `Cc1nc(-c2ccc(Cc3cc(C(=O)N[C@H]4CCCCC[C@@H]4O)c4ncccc4c3)cc2)co1` [compound 17, N-[(1S,2S)-2-hydroxycycloheptyl]-6-[[4-(2-methyloxazol-4-yl)phenyl]methyl]quinoline-8-carboxamide] were, in that order, 65% and 1.82 µM.
For the compound `Cc1nc(-c2ccc(Cc3cc(C(=O)N[C@H]4CCCC[C@@H]4O)c4ncccc4c3)cc2)co1` [compound 18, N-[(1S,2S)-2-hydroxycyclohexyl]-6-[[4-(2-methyloxazol-4-yl)phenyl]methyl]quinoline-8-carboxamide], the Emax is 82% and the EC50 worked out at 0.784 µM.
The like results for `Cc1nc(-c2ccc(Cc3cc(C(=O)N[C@H]4CCC[C@@H]4O)c4ncccc4c3)cc2)co1` [compound 19, N-[(1S,2S)-2-hydroxycyclopentyl]-6-[[4-(2-methyloxazol-4-yl)phenyl]methyl]quinoline-8-carboxamide] were, in that order, 61% and 2.17 µM.
In the same order, the values of `Cc1nc(-c2ccc(Cc3cc(C(=O)NC4CC5(COC5)C4)c4ncccc4c3)cc2)co1` [compound 20, 6-[[4-(2-methyloxazol-4-yl)phenyl]methyl]-N-(2-oxaspiro[3.3]heptan-6-yl)quinoline-8-carboxamide] are 48% and 4.36 µM.

These data come from patent publication US20200131159A1, “POSITIVE ALLOSTERIC MODULATORS OF THE MUSCARINIC ACETYLCHOLINE RECEPTOR M1” (Vanderbilt University, priority 2018, published 2020).
